Earlier results in patent publication US20140066504A1, “ANALOGS AND PRODRUGS OF BUMETANIDE; COMPOSITIONS AND METHODS OF USE” (priority 2012, published 2014).

Legend:
NKCC1 = target: T1, NKCC1 (Homo sapiens, UniProt P55011); conditions: for affinity for NKCC1 over KCC2: selectivity
T1 sequence (P55011 1-1212): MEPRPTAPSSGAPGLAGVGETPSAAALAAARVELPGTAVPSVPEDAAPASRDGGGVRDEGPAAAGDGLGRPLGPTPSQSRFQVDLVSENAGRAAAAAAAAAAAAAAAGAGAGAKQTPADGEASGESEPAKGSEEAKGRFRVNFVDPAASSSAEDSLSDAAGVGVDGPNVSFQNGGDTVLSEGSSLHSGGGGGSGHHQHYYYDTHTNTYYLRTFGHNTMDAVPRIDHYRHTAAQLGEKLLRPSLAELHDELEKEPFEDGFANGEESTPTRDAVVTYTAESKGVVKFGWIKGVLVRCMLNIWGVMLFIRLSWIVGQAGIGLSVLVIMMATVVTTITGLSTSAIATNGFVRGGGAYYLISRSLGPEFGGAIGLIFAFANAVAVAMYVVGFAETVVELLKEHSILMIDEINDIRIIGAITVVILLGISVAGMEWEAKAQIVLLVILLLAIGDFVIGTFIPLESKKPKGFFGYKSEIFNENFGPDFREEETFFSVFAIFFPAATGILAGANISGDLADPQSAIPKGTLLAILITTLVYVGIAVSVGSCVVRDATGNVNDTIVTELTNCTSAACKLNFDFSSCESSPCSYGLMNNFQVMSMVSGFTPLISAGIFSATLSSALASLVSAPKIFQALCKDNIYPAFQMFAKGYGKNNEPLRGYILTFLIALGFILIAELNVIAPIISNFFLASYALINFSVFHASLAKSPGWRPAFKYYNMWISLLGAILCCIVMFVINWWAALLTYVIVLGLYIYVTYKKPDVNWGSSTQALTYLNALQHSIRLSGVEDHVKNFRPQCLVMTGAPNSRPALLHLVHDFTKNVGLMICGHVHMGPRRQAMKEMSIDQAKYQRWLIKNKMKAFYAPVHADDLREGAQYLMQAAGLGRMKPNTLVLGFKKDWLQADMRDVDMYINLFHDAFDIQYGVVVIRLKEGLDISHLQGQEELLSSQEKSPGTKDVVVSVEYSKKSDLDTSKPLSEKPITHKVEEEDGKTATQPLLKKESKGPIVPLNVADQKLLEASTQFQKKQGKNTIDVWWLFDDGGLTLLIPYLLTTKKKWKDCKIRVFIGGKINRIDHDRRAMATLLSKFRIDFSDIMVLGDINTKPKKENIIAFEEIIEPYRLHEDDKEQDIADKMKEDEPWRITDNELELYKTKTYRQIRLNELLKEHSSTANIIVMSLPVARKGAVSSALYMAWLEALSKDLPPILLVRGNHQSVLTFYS

[1] = system: audiogenic seizure-prone rats; conditions: audiogenic seizure-prone animals
primate cortex = conditions: relative to furosemide
rat hippocampal slices = conditions: afterdischarge, high-K+, zero-magnesium, 4-AP, bicuculline, zero-calcium models
neocortex = conditions: intravenously administered, human patients
[2] = system: adults with refractory epilepsy

Compound	effect on kainic acid status (rats)	effect on conditioned anxiety (rat models of anxiety)	NKCC1 antagonist potency and specificity relative to furosemide (NKCC1)	affinity for NKCC1 over KCC2 (NKCC1)	effect on sound-triggered seizures [1]	blocking epileptiform activity (focal bicuculline or 4-AP) and stimulation-evoked afterdischarges (primate cortex)	effect on activity-driven glial cell swelling (glial cell)	effect on epileptiform activity (rat hippocampal slices)	effect on interictal spiking and stimulation-evoked afterdischarges (neocortex)	effect on seizure frequency [2]
CCCCNc1cc(C(=O)O)cc(S(N)(=O)=O)c1Oc1ccccc1 [bumetanide]	more potent than furosemide	significantly reduce conditioned anxiety	more potent and specific antagonist than furosemide	significantly greater affinity for NKCC1 over KCC2	more potent than furosemide	more potent than furosemide	–	–	–	–
NS(=O)(=O)c1cc(C(=O)O)c(NCc2ccco2)cc1Cl [furosemide]	–	significantly reduce conditioned anxiety	–	significantly greater affinity for NKCC1 over KCC2	prevented sound-triggered seizures	–	block activity-driven glial cell swelling	block epileptiform activity	blocked spontaneously occurring interictal spiking and stimulation-evoked afterdischarges	significantly reduced seizure frequency
